{"source": "patent US8686036B2", "about": "“Methods of controlling heart rate while minimizing and/or controlling hypotension” (Baxter International Inc., priority 2011, dated 2014)", "key": {"[1]": {"experiment": "Anesthetized mongrel dog model of the hypotensive potential of esmolol infusions", "format": "in vivo", "conditions": "for decrease in mean arterial pressure (MAP) from pre-infusion baseline, percent change: high dose infusion protocols, FIG. 10: 2000 μg/kg/min RS, 1000 μg/kg/min S, 1000 μg/kg/min R", "description": "A model system utilizing anesthetized mongrel dogs was established in order to predict the hypotensive potential of esmolol hydrochloride injection in human patients. One dog was administered a formulation containing racemic esmolol hydrochloride at a loading dose of 600 μg/kg/min for 3 minutes followed by a maintenance infusion of 300 μg/kg/min for 10 minutes (referred to as 600RS/300RS) followed by a washout period (FIG. 1). In this and subsequent figures, the duration of infusion of the various medicaments is indicated by a coded horizontal line, parallel to the time axis. This protocol was repeated by administering 2000 μg/kg/min for 3 minutes followed by a maintenance infusion of 1000 μg/kg/min for 10 minutes (referred to as 2000RS/1000RS) and then by administering 400 μg/kg/min for 3 minutes followed by a maintenance infusion of 200 μg/kg/min for 10 minutes (referred to as 400RS/200RS). Mean arterial blood pressure and heart rate were monitored throughout the experiment.\nWhile the doses administered to the dogs in the experiments described herein were larger than typical clinical doses, the doses were administered in order to increase repeatability and induce acute hypotension in close to 100% of the dogs by sufficiently increasing the effect level above background noise. Moreover, relative to esmolol administration in humans, the dog model replicates within experimental error the same dependence of mean arterial blood pressure versus infusion rate. Therefore, the conclusions reached at these relatively higher dose levels in dogs are relevant to minimization of adverse effects at lower doses in humans.\nIn initial experiments, the hypotensive potential of a composition comprising the S-isomer of esmolol hydrochloride was compared to a composition comprising the racemic formulation. Mean arterial blood pressure, cardiac output, and systemic vascular resistance were monitored throughout the experiments. Cardiac output and systemic vascular resistance were evaluated to understand the cause of the hypotension (i.e., decrease in cardiac output and/or decrease in systemic vascular resistance).\nEach of four mongrel dogs was administered increasing doses of esmolol hydrochloride (FIGS. 2-5). Two dogs (D00028 and DG0029) received 150 μg/kg/min of the S-isomer formulation until mean arterial pressure reached a steady state, at which time the animal was immediately switched over to 300 μg/kg/min of the racemic formulation (this protocol is referred to as 150S/300RS in FIGS. 3a and 4a). Once a steady state was reached the infusion was stopped and was followed by a washout period. A similar protocol was repeated in both dogs using 300 μg/kg/min of the S-isomer of esmolol followed by administration of 600 μg/kg/min of the racemic mixture of esmolol (this protocol is 300S/600RS in FIGS. 3b and 4b). A final protocol involved administration of 1000 μg/kg/min of the S-isomer of esmolol followed by administration of 2000 μg/kg/min of the racemic mixture of esmolol followed by 1000 μg/kg/min of the S-isomer of esmolol (this protocol is referred to as 1000S/2000RS/1000S in FIGS. 3c and 4c).\nA similar series of protocols were repeated with the other two dogs (DG0027 and DG0030) except the racemic mixture of esmolol was administered before the S-isomer. In other words, 300 μg/kg/min of the racemic mixture of esmolol was administered, followed by administration of 150 μg/kg/min of the S-isomer of esmolol (this protocol is referred to as 300RS/150S in FIGS. 2a and 5a), 600 μg/kg/min of the racemic mixture of esmolol was administered, followed by administration of 300 μg/kg/min of the S-isomer of esmolol (this protocol is referred to as 600RS/300S in FIGS. 2b and 5b), and 2000 μg/kg/min of the racemic mixture of esmolol was administered, followed by administration of 1000 μg/kg/min of the S-isomer of esmolol, and then 2000 μg/kg/min of the racemic mixture of esmolol again (this protocol is referred to as 2000RS/1000S/2000RS in FIGS. 2c and 5c)]. […]"}, "[2]": {"tested_on": "isoproterenol-induced tachycardia", "experiment": "Isoproterenol challenge (isoproterenol-induced tachycardia) in dogs after esmolol infusion", "format": "in vivo, dog", "conditions": "for reduction in mean arterial pressure: 10 minutes", "description": "The purpose of this experiment was to determine if the attenuated hypotension (as assessed by mean arterial blood pressure end point) observed in Example 2 following administration of the S-isomer was associated with reduced efficacy (i.e., ability to control isoproterenol-induced tachycardia) as compared with the racemic formulations.\nOne dog was administered a bolus dose of isoproterenol (0.25 μg/kg) to establish a baseline heart rate response (FIG. 6a). Isoproterenol is a non-selective […] adrenergic agonist capable of inducing tachycardia. After a washout period, the racemic formulation (RS) was administered at 90 μg/kg/min for 10 minutes immediately followed by an isoproterenol challenge. After a washout period, the S-isomer formulation (S) was administered at 45 μg/kg/min for 10 minutes immediately followed by another isoproterenol challenge. This protocol was repeated using 150 μg/kg/min S-isomer followed by 300 μg/kg/min racemic formulation (FIG. 6b) then 2000 μg/kg/min racemic formulation followed by 1000 μg/kg/min S-isomer (FIG. 6c).\nThe experimental protocol was carried out essentially as described in Example 3. In short, each dog was administered racemic esmolol (RS) at the indicated dose for 10 minutes immediately followed by an isoproterenol challenge (a bolus dose of isoproterenol at 0.25 μg/kg). After a washout period, the S-isomer formulation (S) was administered at an equitherapeutic dose for 10 minutes immediately followed by another isoproterenol challenge. This protocol was performed at 90 μg/kg/min RS/45 μg/kg/min S (5 dogs), 300 μg/kg/min RS/150 μg/kg/min S (1 dog), 600 μg/kg/min RS/300 μg/kg/min S (3 dogs), 1000 μg/kg/min RS/500 μg/kg/min S (4 dogs), and 2000 μg/kg/min RS/1000 μg/kg/min S (3 dogs).\nIn order to better estimate the true differential effect in hypotensive potential between racemic esmolol and the S-isomer of esmolol at the lower dose range, data from other dogs that were not part of the isoproterenol challenge experiments, but were otherwise treated identically, were combined with the data set from FIG. 12A and presented in FIG. 12B. The additional data points were only from those dogs where a stated dose was administered first or where a sufficient wash-out period preceded the stated dose as to avoid any confounding variables. […] Thus, the lack of significant differentiation in mean arterial pressure seen at the lower doses in FIG. 12A was likely due to the relatively smaller sample size and biological variability."}, "[3]": {"experiment": "Anesthetized mongrel dog model of the hypotensive potential of esmolol infusions", "format": "in vivo"}, "beta-adrenergic": {"tested_on": "beta-adrenergic", "conditions": "WO 88/01614; cited from earlier work"}, "[4]": {"experiment": "Superimposition of dog systolic blood pressure results with human meta-analysis (Yu et al.)", "format": "in vivo", "conditions": "at a given dose, FIG. 13, human data of Yu et al.", "excerpt": "The esmolol doses administered to the dogs in the experiments described herein needed to be larger than typical clinical doses used in humans in order to increase repeatability and induce acute hypotension in close to 100% of the dogs by sufficiently increasing the effect level above background noise. To confirm that the results obtained herein with mongrel dogs are clinically relevant, data from the experimental results obtained herein were superimposed with the maximal weighted mean difference in systolic blood pressure results obtained by Yu et al. in a meta-analysis of randomized controlled clinical trials with esmolol hydrochloride (Yu et al., Anesth Analg. 2011 February; 112(2):267-81)."}, "[5]": {"conditions": "cited from earlier work"}, "[6]": {"conditions": "Example 1, one dog, 400RS/200RS, 600RS/300RS, 2000RS/1000RS"}}, "note": "Structures can show the parent of a compound that is named as a salt.", "data": [{"smiles": "COC(=O)CCc1ccc(OC[C@@H](O)CNC(C)C)cc1.Cl", "note": "(single isomer, unassigned) [S-isomer]", "values": [{"measurement": "hypotension (mean arterial blood pressure) at the high dose infusion protocol", "setting": "[1]; Example 2, 1000 μg/kg/min S-isomer vs 2000 μg/kg/min racemic mixture", "result": "significantly less hypotension relative to the racemic formulation"}, {"measurement": "mean arterial blood pressure during the 1000S phase", "setting": "[1]; Example 2, 2000RS/1000S/2000RS protocol, FIG. 2c", "result": "increased"}, {"measurement": "increase in MAP from end of first infusion to end of second infusion", "setting": "[1]; FIG. 11, initial state RS racemic mixture, then S-isomer", "result": 34, "unit": "%"}, {"measurement": "decrease in mean arterial pressure (MAP) from pre-infusion baseline, percent change", "setting": "[1]", "result": 13, "unit": "%"}, {"measurement": "hypotension (mean arterial blood pressure) at the high infusion rate", "setting": "[2]; Example 3, 1000 μg/kg/min S-isomer vs 2000 μg/kg/min racemic formulation", "result": "significantly less hypotension relative to the racemic formulation"}, {"measurement": "efficacy in reducing isoproterenol-induced tachycardia", "setting": "[2]; Example 3, equitherapeutic amounts (half the racemic dose)", "result": "same degree of efficacy in reducing isoproterenol-induced tachycardia as compared with the racemic formulation"}, {"measurement": "hypotensive effect (reduction in mean arterial pressure) vs racemic esmolol", "setting": "[2]; Example 5, doses greater than 600 μg/kg/min racemic esmolol/300 μg/kg/min S-isomer formulation", "result": "differed significantly"}, {"measurement": "reduction in mean arterial pressure", "setting": "[2]; Example 5, equitherapeutic dose 500 μg/kg/min", "result": "about 10 mmHg"}, {"measurement": "percent reduction in heart rate following isoproterenol challenge vs racemic esmolol", "setting": "[2]; Example 5, equitherapeutic dose (half the racemic dose), all doses, FIG. 12A", "result": "essentially identical"}, {"measurement": "efficacy in reducing isoproterenol-induced tachycardia", "setting": "[2]; Example 5, equitherapeutic doses, across all doses", "result": "same degree of efficacy in reducing isoproterenol-induced tachycardia as compared with the racemic formulation"}, {"measurement": "difference in mean arterial pressure vs racemic esmolol, pooled data", "setting": "[2]; FIG. 12B, 600 μg/kg/min racemic esmolol (7 dogs)/300 μg/kg/min S-isomer (5 dogs)", "result": "statistically significant difference in mean arterial pressure"}, {"measurement": "mean arterial blood pressure at the high dose infusion rate relative to the racemic formulation", "setting": "[3]; Example 4, 1000 μg/kg/min S after 2000 μg/kg/min RS", "result": "improved (or increased)"}, {"measurement": "potency as beta-adrenergic-blocking agent relative to an equivalent amount of the racemic mixture", "setting": "beta-adrenergic", "result": "about twice"}]}, {"smiles": "COC(=O)CCc1ccc(OC[C@H](O)CNC(C)C)cc1", "note": "(single isomer, unassigned) [R-isomer]", "values": [{"measurement": "ability to lower heart rate when experimentally increased", "setting": "[1]; Examples 1-4", "result": "no apparent, inherent ability to lower heart rate"}, {"measurement": "decrease in mean arterial pressure (MAP) from pre-infusion baseline, percent change", "setting": "[1]", "result": 19, "unit": "%"}, {"measurement": "cardiovascular changes following administration", "setting": "[3]; Example 4", "result": "qualitatively identical to those following the administration of the racemic formulation"}]}, {"smiles": "COC(=O)CCc1ccc(OCC(O)CNC(C)C)cc1", "note": "(racemic) [esmolol hydrochloride, methyl-3-[4-(2-hydroxy-3-isopropylamino)propoxy]phenylpropionate hydrochloride]", "values": [{"measurement": "heart rate response", "setting": "[1]; [6]", "result": "dose-dependent reflex tachycardia"}, {"measurement": "mean arterial blood pressure response", "setting": "[1]; [6]", "result": "clear dose-dependent decrease in mean arterial blood pressure"}, {"measurement": "mean arterial pressure response", "setting": "[1]; Example 2, four dogs, 300, 600, 2000 μg/kg/min, before or after the S-isomer", "result": "dose-dependent decrease in mean arterial pressure in all four dogs"}, {"measurement": "decrease in MAP from end of first infusion to end of second infusion", "setting": "[1]; FIG. 11, initial state S-isomer formulation, then RS racemic mixture", "result": 32, "unit": "%"}, {"measurement": "decrease in mean arterial pressure (MAP) from pre-infusion baseline, percent change", "setting": "[1]", "result": 40, "unit": "%"}, {"measurement": "mean arterial blood pressure response", "setting": "[2]; Example 3, one dog, RS 90, 300, 2000 μg/kg/min vs S 45, 150, 1000 μg/kg/min", "result": "greater dose-dependent decrease in mean arterial blood pressure relative to the S-isomer"}, {"measurement": "reduction in mean arterial pressure", "setting": "[2]; Example 5, infusion rate 1000 μg/kg/min", "result": "about 20 mmHg"}, {"measurement": "severity of clinical hypotension (systolic blood pressure) in human patients relative to the dog model", "setting": "[4]", "result": "more than two times as severe"}, {"measurement": "patients who experienced hypotension", "setting": "[5]; clinical trials, packaging insert", "result": "20-50%"}, {"measurement": "acute hypotension in patients of Asian ancestry", "setting": "[5]; loading infusion 500 μg/kg body weight per minute, Ko et al.", "result": "all patients administered this dosage experienced acute hypotension"}]}]}
